Values belong to the molecule of their own block, whether it stands above or below them. Active and inactive are the calls of the source. The rule behind the calls is not given here.
Tests used:
[1] = biological target: NACHT, LRR and PYD domains-containing protein 3 (Mus musculus, UniProt Q8R4B8); experiment: Inhibition of NLRP3 inflammasome in mouse […] cells assessed as inhibition of LPS/ATP-induced IL-1 beta secretion primed with LPS for 4.5 hs followed by incubation with compound for 30 mins and later stimulation with ATP for 30 mins by ELISA; type: cell-based, J774.A1
[2] = Effect on immune cell numbers in MCS diet-fed C57BL/6 mouse assessed as effect on CD45 expression at 40 mg/kg, po administered via gavage for 5 weeks by immunofluorescence staining based analysis; type: toxicity, organism-based; conditions: in vivo, 840 h
[3] = Effect on immune cell numbers in MCS diet-fed C57BL/6 mouse assessed as effect on F4/80 expression at 40 mg/kg, po administered via gavage for 5 weeks by immunofluorescence staining based analysis; type: toxicity, organism-based; conditions: in vivo, 840 h
[4] = system: Mus musculus; experiment: Antiinflammatory activity against MCD diet-induced NASH C57BL/6 mouse model assessed as reduction in liver fibrosis at 40 mg/kg, po administered via gavage for 5 weeks by Masson's trichrome staining based analysis; type: functional, organism-based
[5] = system: Mus musculus; experiment: Antiinflammatory activity against MCD diet-induced NASH C57BL/6 mouse model assessed as reduction in balloon dilatation in liver at 40 mg/kg, po administered via gavage for 5 weeks by Masson's trichrome staining based analysis; type: functional, organism-based
[6] = system: Mus musculus; experiment: Antiinflammatory activity against MCD diet-induced NASH C57BL/6 mouse model assessed as reduction in liver steatosis at 40 mg/kg, po administered via gavage for 5 weeks by Masson's trichrome staining based analysis; type: functional, organism-based
[7] = system: Mus musculus; experiment: Antiinflammatory activity against MCD diet-induced NASH C57BL/6 mouse model assessed as improvement in liver morphology at 40 mg/kg, po administered via gavage for 5 weeks by Masson's trichrome staining based analysis; type: functional, organism-based
[8] = system: Mus musculus; experiment: Antiinflammatory activity against MCD diet-induced NASH C57BL/6 mouse model assessed as reduction in liver fibrosis at 40 mg/kg, po administered via gavage for 5 weeks by Sirius red staining based analysis; type: functional, organism-based
[9] = system: Mus musculus; experiment: Antiinflammatory activity against MCD diet-induced NASH C57BL/6 mouse model assessed as reduction in balloon dilatation in liver at 40 mg/kg, po administered via gavage for 5 weeks by Sirius red staining based analysis; type: functional, organism-based
[10] = system: Mus musculus; experiment: Antiinflammatory activity against MCD diet-induced NASH C57BL/6 mouse model assessed as reduction in liver steatosis at 40 mg/kg, po administered via gavage for 5 weeks by Sirius red staining based analysis; type: functional, organism-based
[11] = system: Mus musculus; experiment: Antiinflammatory activity against DSS-induced ulcerative colitis C57BL/6 mouse assessed as reduction in inflammatory cells infiltration in lamina propria in colon at 10 mg/kg, ip administered for 9 days and measured on day 10 by H and E staining based analysis; type: functional, organism-based; conditions: time 10.0 day
[12] = system: L02; experiment: Cytotoxicity against human HL7702 cells assessed as reduction in cell viability at 200 uM measured after 24 hrs by CCK8 assay; type: toxicity, cell-based; conditions: l02, 24 h
[13] = system: Hepatocyte; experiment: Cytotoxicity against mouse primary hepatic cells assessed as reduction in cell viability at 200 uM measured after 24 hrs by CCK8 assay; type: toxicity, cell-based; conditions: hepatocytes
[14] = Half life in C57BL/6 mouse at 20 mg/kg, po by LC-MS/MS analysis; type: ADME, organism-based; conditions: in vivo
[15] = Oral bioavailability in C57BL/6 mouse at 20 mg/kg by LC-MS/MS analysis; type: ADME, organism-based; conditions: in vivo
[16] = system: Mus musculus; experiment: Antiinflammatory activity against MCD diet-induced NASH C57BL/6 mouse model assessed as protection against MCD diet-induced increase in liver to body weight ratio at 40 mg/kg, po administered via gavage for 5 weeks; type: functional, organism-based
[17] = system: Mus musculus; experiment: Antiinflammatory activity against MCD diet-induced NASH C57BL/6 mouse model assessed as improvement in liver morphology at 40 mg/kg, po administered via gavage for 5 weeks by H and E staining based analysis; type: functional, organism-based
[18] = system: Mus musculus; experiment: Antiinflammatory activity against MCD diet-induced NASH C57BL/6 mouse model assessed as reduction in liver steatosis at 40 mg/kg, po administered via gavage for 5 weeks by H and E staining based analysis; type: functional, organism-based
[19] = system: Mus musculus; experiment: Antiinflammatory activity against MCD diet-induced NASH C57BL/6 mouse model assessed as reduction in balloon dilatation in liver at 40 mg/kg, po administered via gavage for 5 weeks by H and E staining based analysis; type: functional, organism-based
[20] = system: Mus musculus; experiment: Antiinflammatory activity against MCD diet-induced NASH C57BL/6 mouse model assessed as reduction in liver fibrosis at 40 mg/kg, po administered via gavage for 5 weeks by H and E staining based analysis; type: functional, organism-based
[21] = system: Mus musculus; experiment: Antiinflammatory activity against MCD diet-induced NASH C57BL/6 mouse model assessed as improvement in liver morphology at 40 mg/kg, po administered via gavage for 5 weeks by Sirius red staining based analysis; type: functional, organism-based
[22] = system: Mus musculus; experiment: Antiinflammatory activity against MCD diet-induced NASH C57BL/6 mouse model assessed as reduction in TUNEL-positive hepatic cells at 40 mg/kg, po administered via gavage for 5 weeks by TUNEL assay; type: functional, organism-based
[23] = system: Mus musculus; experiment: Antiinflammatory activity against MCD diet-induced NASH C57BL/6 mouse model assessed as reduction in immune cell infiltration by measuring reduction in F4/80-positive hepatic cells at 40 mg/kg, po administered via gavage for 5 weeks by immunofluorescence staining based analysis; type: functional, organism-based
[24] = system: Mus musculus; experiment: Antiinflammatory activity against MCD diet-induced NASH C57BL/6 mouse model assessed as reduction in immune cell infiltration by measuring reduction in CD45-positive hepatic cells at 40 mg/kg, po administered via gavage for 5 weeks by immunofluorescence staining based analysis; type: functional, organism-based
[25] = system: Mus musculus; experiment: Antiinflammatory activity against LPS-induced lethal septic shock C57BL/6 mouse model assessed as increase in animal's survival rate at 40 mg/kg, ip administered for 1 hr prior to LPS challenge and measured for 72 hrs; type: functional; conditions: time 73 hrs
[26] = system: Mus musculus; experiment: Antiinflammatory activity against LPS-induced lethal septic shock C57BL/6 mouse model assessed as increase in animal's survival rate at 20 mg/kg, ip administered for 1 hr prior to LPS challenge and measured for 72 hrs; type: functional; conditions: time 73 hrs
[27] = system: Mus musculus; experiment: Antiinflammatory activity against LPS-induced lethal septic shock C57BL/6 mouse model assessed as reduction in serum IL-1 beta level at 20 to 40 mg/kg, ip administered for 1 hr prior to LPS challenge and measured after 2.5 hrs by ELISA; type: functional, organism-based; conditions: dose 20-40 mg/kg, time 3.5 hrs
[28] = system: Mus musculus; experiment: Antiinflammatory activity against LPS-induced lethal septic shock C57BL/6 mouse model assessed as effect on TNF-alpha level at 40 mg/kg, ip administered for 1 hr prior to LPS challenge and measured after 2.5 hrs by ELISA; type: functional, organism-based; conditions: time 3.5 hrs
[29] = system: Mus musculus; experiment: Antiinflammatory activity against DSS-induced ulcerative colitis C57BL/6 mouse assessed as reduction in body weight loss at 10 mg/kg, ip administered for 9 days and measured daily; type: functional, organism-based; conditions: time 9.0 day
[30] = system: Mus musculus; experiment: Antiinflammatory activity against DSS-induced ulcerative colitis C57BL/6 mouse assessed as reduction in colon length shortening at 10 mg/kg, ip administered for 9 days and measured on day 10; type: functional, organism-based; conditions: time 10.0 day
[31] = system: Mus musculus; experiment: Antiinflammatory activity against DSS-induced ulcerative colitis C57BL/6 mouse assessed as reduction in mucosal barrier disruption in colon at 10 mg/kg, ip administered for 9 days and measured on day 10 by H and E staining based analysis; type: functional, organism-based; conditions: time 10.0 day
[32] = system: Mus musculus; experiment: Antiinflammatory activity against DSS-induced ulcerative colitis C57BL/6 mouse assessed as reduction in crypt necrosis in colon at 10 mg/kg, ip administered for 9 days and measured on day 10 by H and E staining based analysis; type: functional, organism-based; conditions: time 10.0 day
[33] = system: Mus musculus; experiment: Antiinflammatory activity against DSS-induced ulcerative colitis C57BL/6 mouse assessed as reduction in massive loss of goblet cells in colon at 10 mg/kg, ip administered for 9 days and measured on day 10 by H and E staining based analysis; type: functional, organism-based; conditions: time 10.0 day
[34] = biological target: NACHT, LRR and PYD domains-containing protein 3 (Mus musculus) (UniProt Q8R4B8); conditions: J774.A1, dose 30.0 nM, time 3.0 hrs
[35] = biological target: NACHT, LRR and PYD domains-containing protein 3 (Mus musculus) (UniProt Q8R4B8); conditions: J774.A1, dose 30.0 nM, time 3.0 hrs; remark: listed apart in the source

Chain of NACHT, LRR and PYD domains-containing protein 3 (Q8R4B8 whole entry, the tested form may be a part): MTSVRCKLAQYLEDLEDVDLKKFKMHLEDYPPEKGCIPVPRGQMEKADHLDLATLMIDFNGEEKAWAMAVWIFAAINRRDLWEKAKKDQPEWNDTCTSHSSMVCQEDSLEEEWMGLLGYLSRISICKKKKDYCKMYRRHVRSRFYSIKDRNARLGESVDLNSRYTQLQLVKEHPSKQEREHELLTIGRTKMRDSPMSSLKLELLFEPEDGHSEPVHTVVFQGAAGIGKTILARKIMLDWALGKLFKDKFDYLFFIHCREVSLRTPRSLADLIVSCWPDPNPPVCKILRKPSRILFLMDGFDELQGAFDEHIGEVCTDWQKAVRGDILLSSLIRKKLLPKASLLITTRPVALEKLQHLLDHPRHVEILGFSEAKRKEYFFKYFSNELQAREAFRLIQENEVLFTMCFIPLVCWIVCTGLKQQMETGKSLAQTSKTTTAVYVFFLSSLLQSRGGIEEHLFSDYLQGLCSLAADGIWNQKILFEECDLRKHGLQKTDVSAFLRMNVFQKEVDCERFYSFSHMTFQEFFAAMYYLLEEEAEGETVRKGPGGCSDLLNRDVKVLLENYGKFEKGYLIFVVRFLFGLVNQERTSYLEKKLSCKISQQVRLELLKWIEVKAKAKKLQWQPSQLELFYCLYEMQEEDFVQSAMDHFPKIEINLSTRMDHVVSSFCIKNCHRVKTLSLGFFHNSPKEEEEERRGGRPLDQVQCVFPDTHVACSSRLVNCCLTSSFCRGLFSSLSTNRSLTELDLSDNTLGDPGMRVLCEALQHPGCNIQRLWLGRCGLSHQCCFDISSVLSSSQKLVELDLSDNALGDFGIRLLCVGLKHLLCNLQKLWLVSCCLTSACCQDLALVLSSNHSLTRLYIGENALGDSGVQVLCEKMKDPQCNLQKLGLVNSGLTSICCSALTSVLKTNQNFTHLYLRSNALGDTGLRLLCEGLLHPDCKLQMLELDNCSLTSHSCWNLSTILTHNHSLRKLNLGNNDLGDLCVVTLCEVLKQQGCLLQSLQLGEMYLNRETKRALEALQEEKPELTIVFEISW
Chain of NACHT, LRR and PYD domains-containing protein 3 (Mus musculus) (Q8R4B8 whole entry, the tested form may be a part): as above

SMILES: CN(C)c1ccc(-c2c3c(c(NC(=O)NS(=O)(=O)c4cc(C(C)(C)O)co4)c4c2CCC4)CCC3)cc1
IC50 [1]: > 5000 nM

SMILES: CC(=O)c1cccc(S(=O)(=O)NC(=O)Nc2c3c(cc4c2CCC4)CCC3)c1
IC50 [1]: > 20000 nM

SMILES: CC(C)(O)c1coc(S(=O)(=O)NC(=O)Nc2c3c(c(-c4ccc(C=O)cc4)c4c2CCC4)CCC3)c1
IC50 [1]: > 5000 nM

SMILES: CC(C)(C)OC(=O)N1CC=C(c2c3c(c(NC(=O)NS(=O)(=O)c4cc(C(C)(C)O)co4)c4c2CCC4)CCC3)CC1
IC50 [1]: > 5000 nM

SMILES: CC(C)(O)c1cc(Br)cc(S(=O)(=O)NC(=O)Nc2c3c(cc4c2CCC4)CCC3)c1
IC50 [1]: > 20000 nM

SMILES: CCc1cccc(CC)c1NC(=O)NS(=O)(=O)c1ccc(CN(C)C)cc1
IC50 [1]: > 10000 nM

SMILES: CC(C)(O)c1coc(S(=O)(=O)NC(=O)Nc2c3c(cc4c2CCC4)CCC3)c1
Activity [2]: Non-Toxic
Activity [3]: Non-Toxic
Activity [4]: Active
Activity [5]: Active
Activity [6]: Active
Activity [7]: Active
Activity [8]: Active
Activity [9]: Active
Activity [10]: Active
Activity [11]: Active
IC50 [1]: 14 nM
Activity [12]: Toxic
Activity [13]: Toxic
half-life [14]: 1.32 h
bioavailability [15]: 85.2%
Activity [16]: Active
Activity [17]: Active
Activity [18]: Active
Activity [19]: Active
Activity [20]: Active
Activity [21]: Active
Activity [22]: Active
Activity [23]: inactive
Activity [24]: inactive
survival at 40 mg/kg [25]: 60%
survival at 20 mg/kg [26]: 20%
Activity [27]: Active
Activity [28]: inactive
Activity [29]: Active
Activity [30]: Active
Activity [31]: Active
Activity [32]: Active
Activity [33]: Active
inhibition [34]: Active
inhibition [35]: Active

SMILES: COC(=O)c1ccc(-c2c3c(c(NC(=O)NS(=O)(=O)c4cc(C(C)(C)O)co4)c4c2CCC4)CCC3)cc1
IC50 [1]: 1120 nM

SMILES: CC(C)(O)c1coc(S(=O)(=O)NC(=O)Nc2c3c(c(-c4cccc(C#N)c4)c4c2CCC4)CCC3)c1
IC50 [1]: > 5000 nM

SMILES: CC(C)(C)OC(=O)Nc1ccc(-c2c3c(c(NC(=O)NS(=O)(=O)c4cc(C(C)(C)O)co4)c4c2CCC4)CCC3)cc1
IC50 [1]: > 5000 nM

SMILES: CN(C)Cc1ccc(S(=O)(=O)NC(=O)Nc2c(-c3ccccc3)cccc2-c2ccccc2)cc1
IC50 [1]: 1480 nM

The next lines start with the values.

IC50 [1]: 1680 nM
SMILES: CN(C)Cc1cc(S(=O)(=O)NC(=O)Nc2c3c(cc4c2CCC4)CCC3)ccn1

IC50 [1]: > 10000 nM
SMILES: CCCCN(C)Cc1ccc(S(=O)(=O)NC(=O)Nc2c3c(cc4c2CCC4)CCC3)cc1

IC50 [1]: 1250 nM
SMILES: O=C(Nc1c2c(cc3c1CCC3)CCC2)NS(=O)(=O)c1ccc(CN2CCCCC2)cc1

IC50 [1]: 63 nM
SMILES: CCN(C)Cc1ccc(S(=O)(=O)NC(=O)Nc2c3c(cc4c2CCC4)CCC3)cc1

IC50 [1]: > 10000 nM
SMILES: CN1CCN(Cc2ccc(S(=O)(=O)NC(=O)Nc3c4c(cc5c3CCC5)CCC4)cc2)CC1
